Test results from patent publication US8088887B2, “Peptide-conjugates that bind to VEGF-stimulated or tumor vasculature and methods of treatment” (Academia Sinica, priority 2007, dated 2012).
“Also recorded” adds a separate entry of the source.

Key:
[1] = test system: NSCLC tumor mass (CL1-5-derived tumors); test: Peptide competitive inhibition of PC5-52 phage homing, lung cancer xenografts; format: in vivo, SCID mice
Experimental: To investigate the targeting ability of PC5-52, phages were injected into the tail vein of SCID mice bearing human lung cancer cell-derived tumors and recovered after perfusion. We determined the titers of the phages in tumor mass and other normal organs. The phage clones, or control helper phage (insertless phage), were injected into the tail vein (i.v.) of SCID mice bearing human lung cancer tumor xenografts for 8 min or 24 h. After perfusion, xenograft tumors and organs were removed and the recovered phage titered. In peptide competitive inhibition experiments, described below, phage clones were co-injected with 100 μg synthetic peptide. After injection of candidate or control phage clones, the organs and tumors were removed and divided into two parts. One part was titered by ER2738, and another part was embedded in Optimal Cutting Temperature (OCT, Tissue-Tek, NL, USA). The OCT-embedded frozen tissues were sectioned at 5 microns and transferred to cold PBS buffer. Then, the sections were fixed with acetone-methanol (1:1), washed with PBS and immersed in blocking buffer (1% BSA in PBS) for 1 h. The blocked samples were then incubated with rat anti-mouse CD31 (BD Pharmingen, Mass., USA.), rabbit anti-rat Ab (Stressgen, Canada) and immersed in Rhodamine labeled goat anti-rabbit antibody (Jackson ImmunoResearch, Pa., USA.). […]

oral cancer xenografts = test: Peptide competitive inhibition of IVO-2 phage homing, oral cancer xenografts; format: in vivo, SCID mice

| Sequence | inhibition of PC5-52 homing to NSCLC tumor mass ([1]; 100 μg peptide co-injected with phage) | inhibition of tumor homing ability of PC5-52 ([1]; co-injected peptide, CL1-5-derived tumors, FIG. 2B/4B) | inhibition of IVO-2 homing to oral cancer xenografts (oral cancer xenografts; coinjection of 100 μg peptide) | inhibition of IVO-2 homing to tumor tissue (oral cancer xenografts; co-injected peptide, FIG. 2D) |
| --- | --- | --- | --- | --- |
| SVSVGMKPSPRP [SP5-52] | 97% | inhibited markedly; also recorded: markedly inhibited | 95.9% | – |
| RLLDTNRPLLPY [Control peptide, synthetic control peptide, reference compound] | – | – | – | could not inhibit |
